From patent US9688684B2, “Substituted tetrazolo[1,5-a]pyrazines as ROR-gamma inhibitors” (Merck Patent GmbH, priority 2013, dated 2017)

The compounds below were run against human RORγ ligand binding domain (GST-hRORγ-LBD) (Homo sapiens (Human), UniProt P51449) (assay: TR-FRET assay (biochemical cofactor interaction assay, GST-hRORγ-LBD / TRAP220 peptide)).
Description: RORγ is an orphan member of the nuclear receptor (NR) family displaying constitutive activity. The activity of nuclear receptors can be modulated by ligand-induced cofactor protein interactions. For example, agonist binding leads to recruitment of coactivator protein, and antagonist binding either blocks coactivator interaction or facilitates the recruitment of corepressors. […] The conformational change induced by ligand binding influences interactions with LXXLL motif peptides.
RORγ (t) is a thymus-specific isoform of RORγ which is widely expressed. It shares the same ligand binding domain (LBD) sequence with RORγ. Thus, a screen using the LBD will yield antagonists targeting both RORγ and RORγt.
In order to identify compounds which block activity of the human nuclear receptor Retinoid-related Orphan Receptor gamma (RORγ) a biochemical cofactor interaction assay based on the TR-FRET principle is performed. […] The ligand-binding domain (LBD) of RORγ is expressed as fusion protein with GST in […] cells using the vector pDEST15. Cells are lysed by lysozyme-treatment and sonication, and the fusion proteins purified over glutathione sepharose (Pharmacia) according to the manufacturers instructions. The strong constitutive interaction is disrupted upon binding of functional antagonists. The strength of the interaction is monitored by TR-FRET between streptavidine APC interacting with the biotinylated peptide and Europium-labelled Anti-GST.

Sequence of human RORγ ligand binding domain (GST-hRORγ-LBD) (P51449 269-508): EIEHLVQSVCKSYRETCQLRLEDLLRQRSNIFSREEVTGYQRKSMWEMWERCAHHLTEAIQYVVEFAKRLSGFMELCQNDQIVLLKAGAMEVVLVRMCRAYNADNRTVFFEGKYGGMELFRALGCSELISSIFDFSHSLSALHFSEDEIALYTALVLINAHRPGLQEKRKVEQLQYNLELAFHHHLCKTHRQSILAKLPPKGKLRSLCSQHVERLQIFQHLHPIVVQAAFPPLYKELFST

| Compound | IC50 [µM] |
| --- | --- |
| Fc1ccc(CN2CCn3nnnc3C2c2cccc(F)c2)cc1 (single isomer, unassigned) [Compound 91-a, 7-(4-Fluoro-benzyl)-8-(3-fluoro-phenyl)-5,6,7,8-tetrahydro-tetrazolo[1,5-a]pyrazine] | 9.9 to 40 |
| Cc1cccc(CN2CCn3nnnc3C2c2ccc(F)cc2)c1 (single isomer, unassigned) [Compound 93-b, 8-(4-Fluoro-phenyl)-7-(3-methyl-benzyl)-5,6,7,8-tetrahydro-tetrazolo[1,5-a]pyrazine] | 9.9 to 40 |
| Fc1ccc(C2c3nnnn3CCN2Cc2cccc(Br)c2)cc1 (single isomer, unassigned) [Compound 96-b, 7-(3-Bromo-benzyl)-8-(4-fluoro-phenyl)-5,6,7,8-tetrahydro-tetrazolo[1,5-a]pyrazine] | 9.9 to 40 |
| Brc1cccc(C2c3nnnn3CCN2CC2CCCCC2)c1 (stereo not shown) [Compound 9, 8-(3-Bromo-phenyl)-7-cyclohexylmethyl-5,6,7,8-tetrahydro-tetrazolo[1,5-a]pyrazine] | 9.9 to 40 |
| CC(C)c1nn(-c2ccccc2)cc1CN1CCn2nnnc2C1c1ccc(F)cc1 (stereo not shown) [Compound 11, 8-(4-Fluoro-phenyl)-7-(3-isopropyl-1-phenyl-1H-pyrazol-4-ylmethyl)-5,6,7,8-tetrahydro-tetrazolo[1,5-a]pyrazine] | 9.9 to 40 |
| COc1ccc(OC)c(C2c3nnnn3CCN2Cc2cn(-c3ccccc3)nc2C(C)C)c1 (stereo not shown) [Compound 13, 8-(2,5-Dimethoxy-phenyl)-7-(3-isopropyl-1-phenyl-1H-pyrazol-4-ylmethyl)-5,6,7,8-tetrahydro-tetrazolo[1,5-a]pyrazine] | 9.9 to 40 |
| CN(C)c1ccc(C2c3nnnn3CCN2Cc2cc(F)ccc2F)cc1 (stereo not shown) [Compound 16, {4-[7-(2,5-Difluoro-benzyl)-5,6,7,8-tetrahydro-tetrazolo[1,5-a]pyrazin-8-yl]-phenyl}-dimethyl-amine] | 9.9 to 40 |
| CN(C)c1ccc(C2c3nnnn3CCN2CC2CCCCC2)cc1 (stereo not shown) [Compound 19, [4-(7-Cyclohexylmethyl-5,6,7,8-tetrahydro-tetrazolo[1,5-a]pyrazin-8-yl)-phenyl]-dimethyl-amine] | 9.9 to 40 |
| CN(C)c1ccc(C2c3nnnn3CCN2Cc2cccc(F)c2F)cc1 (stereo not shown) [Compound 20, {4-[7-(2,3-Difluoro-benzyl)-5,6,7,8-tetrahydro-tetrazolo[1,5-a]pyrazin-8-yl]-phenyl}-dimethyl-amine] | 9.9 to 40 |
| COc1ccc(CN2CCn3nnnc3C2c2ccccc2F)cc1 (stereo not shown) [Compound 22, 8-(2-Fluoro-phenyl)-7-(4-methoxy-benzyl)-5,6,7,8-tetrahydro-tetrazolo[1,5-a]pyrazine] | 9.9 to 40 |
| Cc1cccc(C2c3nnnn3CCN2Cc2cn(-c3ccccc3)nc2C(C)C)c1 (stereo not shown) [Compound 27, 7-(3-Isopropyl-1-phenyl-1H-pyrazol-4-ylmethyl)-8-m-tolyl-5,6,7,8-tetrahydro-tetrazolo[1,5-a]pyrazine] | 9.9 to 40 |

More lines, now with the values ahead:

| IC50 [µM] | Compound |
| --- | --- |
| 9.9 to 40 | 7-Benzyl-8-(4-ethyl-phenyl-1H-pyrazol-4-yl)-5,6,7,8-tetrahydro-tetrazolo[1,5-a]pyrazine [Compound 152] |
| 9.9 to 40 | COc1ccc(OC)c(CN2CCn3nnnc3C2c2ccc(OC(C)C)cc2)c1 (stereo not shown) [Compound 1, 7-(2,5-Dimethoxy-benzyl)-8-(4-isopropoxy-phenyl)-5,6,7,8-tetrahydro-tetrazolo[1,5-a]pyrazine] |
| 9.9 to 40 | CC(C)Oc1ccc(C2c3nnnn3CCN2CC2CCCCC2)cc1 (stereo not shown) [Compound 3, 7-Cyclohexylmethyl-8-(4-isopropoxy-phenyl)-5,6,7,8-tetra hydro-tetrazolo[1,5-a]pyrazine] |
| 9.9 to 40 | COc1ccc(C2c3nnnn3CCN2Cc2cn(-c3ccccc3)nc2C(C)C)cc1 (stereo not shown) [Compound 5, 7-(3-Isopropyl-1-phenyl-1H-pyrazol-4-ylmethyl)-8-(4-methoxy-phenyl)-5,6,7,8-tetrahydro-tetrazolo[1,5-a]pyrazine] |
| 9.9 to 40 | Brc1cccc(CN2CCn3nnnc3C2c2cccc(Br)c2)c1 (stereo not shown) [Compound 6, 7-(3-Bromo-benzyl)-8-(3-bromo-phenyl)-5,6,7,8-tetrahydro-tetrazolo[1,5-a]pyrazine] |
